Four compounds from patent US20150174202A1, “Methods and Compositions for Modulating Beta Cell Proliferation” (The Board of Trustees of the Leland Stanford Junior …, priority 2011, published 2015) can be followed below.

Entries after “also recorded” stand apart in the source; their conditions may differ.

What all share (format): cell-based
The subject of assay [1] is PDGFRA. The experiment in a line: PDGFRA expression in human islets exposed to 5-aza-C. From the text:
(§1) The CpG tool of the UCSC genome browser (v257) identifies two CpG islands upstream of the translational start site of the mouse Pdgfra gene, spanning the regions −9040/−9610 and −5662/−5054 (FIG. 20). The more 3′ promoter-proximal CpG island at −5662/−5054 aligns well with regions associated with histone H3K4me1 and H3K4me3, marks of enhancers or cis-regulatory elements, with lesser overlap in the more 5′ CpG island at −9040/−9610. There are also two CpG islands within the −3,600 to +118 region of the human PDGFRA promoter-proximal region, and evidence exists that DNA methylation within the most 3′ CpG island regulates PDGFRA expression (Toepoel et al 2008). […] These findings indicate that DNA methylation and associated chromatin remodeling regulates expression of islet β-cell PDGFRA.

Assay [2] concerns PDGFRA. The assay can be described thus: PDGFRA expression in mouse islets exposed to 5-aza-C.
Excerpt: as §1

Assay [3] has as its system Ezh2. The assay can be described thus: Ezh2/Ezh1 expression in cultured mouse islets (real-time RT-PCR, western blot). The note with it: 2 days; for Ezh2 mRNA levels after mitogen exposure: juvenile mouse islets exposed to insulin or prolactin; for effect of inhibitor on PDGF-AA-induced Ezh2 expression: 3 week-old mouse islets, PDGF-AA plus inhibitor. On the procedure: Mouse pancreatic islets were purified as described in Chen et al. (2009) Genes Dev. 23, 975-985 and used immediately for assays described in the text. To study Ezh2 induction in cultured islets exposed to mitogens, freshly isolated islets from 2-3-week old, and 7-12-month old C57BL/6 mice were recovered and equilibrated overnight at 37° C., 5% CO2 in RPMI-1640 medium supplemented with 0.5% fetal bovine serum (FBS), 0.2% bovine albumin (BSA) and 2% penicillin/streptomycin. Afterwards, islets were distributed into microplates or dishes, and treated with recombinant human PDGF-AA, prolactin or insulin (Sigma), with or without addition of pharmacological inhibitors, including Sunitinib (Selleck), […]0126 (Sigma), LY294002 (Sigma) or U-73122 (Sigma) at the indicated concentrations. Two days later, islets were harvested for RNA or protein extraction for real-time RTPCR or western blot analyses. To detect phosphorylation of Pdgfr-α by western blot, islets were exposed to PDGF-AA (with or without indicated pharmacological inhibitors) for 90 min before islet harvesting and protein extraction. To detect in vitro islet β-cell proliferation stimulated by PDGF-AA, a final concentration of 50 μM BrdU was introduced into each culture dish 24 h before harvest, followed by standard histological processing. Immunostaining of BrdU and insulin was performed on processed islets, and β-cell proliferation rate was determined by quantifying percentage of insulin+ cells with BrdU+. Culture experiments of human islets were performed using a similar procedure described later. Total RNA from freshly isolated or cultured islets after indicated treatments were purified using the Absolutely RNA miniprep purification kit (Stratagene) according to the manufacturer's instructions. RNA concentration was measured with a RiboGreen RNA quantification assay (Invitrogen). One-step quantitative RT-PCR was performed and analysed using an ABI Prism 7300 detection system (Applied Biosystems) with TaqMan one-step RTPCR Master Mix Reagents and appropriate amounts (10-100 ng) of islet total RNA as the template. We calculated the ratio of mRNA for the gene of interest to the amount of internal control mRNA of peptidylprolyl isomerase A (cyclophilin A, PPIA), and then normalized the ratio for each gene to its median. For western blots, total islet protein was prepared from freshly isolated or cultured islets after indicated treatments as described in Chen et al. (2009) Genes Dev. 23, 975-985. Equal amounts of protein were resolved on SDS-PAGE and transferred to polyvinylidine fluoride membranes (Amersham Pharmacia) for immunoblotting with specific antibodies, including rabbit polyclonal anti-human Ezh2 (1:1,000, Millipore), rabbit polyclonal anti-phospho-PDGFR-α ([…]) (1:1,000, Santa Cruz Biotechnologies), rabbit monoclonal anti-PDGFR-α (1:1,000, Cell Signaling), mouse monoclonal anti-β-actin (1:4,000, Sigma), rabbit monoclonal anti-Akt (1:1,500, Cell Signaling), rabbit monoclonal anti-phospho-Ark ([…]) (1:1,000, Cell Signaling), rabbit monoclonal anti-p44/42 MAPK (Erk1/2) (1:1,500, Cell Signaling), rabbit monoclonal anti-phospho-p44/42 MAPK (Erk1/2) […]) (1:1,000, Cell Signaling), rabbit monoclonal anti-PLCγ1 (1:1,000, Cell Signaling) and rabbit monoclonal anti-phospho-PLCγ1 ([…]) (1:1,000, Cell Signaling). Signal was visualized using ECL detection (Amersham Pharmacia) on Kodak film after further incubation with HRP-conjugated secondary antibodies. For phospho-PDGFR-α ([…]) and PDGFR-α detection, signal was amplified by incubating the membrane with biotinylated anti-rabbit-IgG (1:2,000), followed with an incubation with HRP-avidin (1:2,000, Vector Laboratories) and then ECL visualization.

A further assay concerns mouse islet β-cells. The experiment in a line: In vitro mouse islet β-cell proliferation (BrdU incorporation). The settings on record: 3 week-old mouse islets, PDGF-AA 50 ng/ml plus inhibitor (Sunitinib 2 μM, Vargatef 5 μM), 2 days. On the procedure:
Mouse pancreatic islets were purified as described in Chen et al. (2009) Genes Dev. 23, 975-985 and used immediately for assays described in the text. To study Ezh2 induction in cultured islets exposed to mitogens, freshly isolated islets from 2-3-week old, and 7-12-month old C57BL/6 mice were recovered and equilibrated overnight at 37° C., 5% CO2 in RPMI-1640 medium supplemented with 0.5% fetal bovine serum (FBS), 0.2% bovine albumin (BSA) and 2% penicillin/streptomycin. Afterwards, islets were distributed into microplates or dishes, and treated with recombinant human PDGF-AA, prolactin or insulin (Sigma), with or without addition of pharmacological inhibitors, including Sunitinib (Selleck), […]0126 (Sigma), LY294002 (Sigma) or U-73122 (Sigma) at the indicated concentrations. Two days later, islets were harvested for RNA or protein extraction for real-time RTPCR or western blot analyses. To detect phosphorylation of Pdgfr-α by western blot, islets were exposed to PDGF-AA (with or without indicated pharmacological inhibitors) for 90 min before islet harvesting and protein extraction. To detect in vitro islet β-cell proliferation stimulated by PDGF-AA, a final concentration of 50 μM BrdU was introduced into each culture dish 24 h before harvest, followed by standard histological processing. Immunostaining of BrdU and insulin was performed on processed islets, and β-cell proliferation rate was determined by quantifying percentage of insulin+ cells with BrdU+. […] For measuring pancreatic β-cell mass or BrdU by morphometry, three to six mice for each group were analysed. At least five sections separated by more than 300 μm (pancreases) or 50 μm (cultured islets) were immunostained and assessed for each sample. Images were analysed with an ImagePro program by observers blinded to genotype, and pancreatic β-cell mass and percentage of BrdU+β-cells were calculated as described in Chen et al. Polycomb protein Ezh2 regulates pancreatic 6-cell Ink4a/Arf expression and regeneration in diabetes mellitus. […]

For assay [4], the system named is EZH2. The assay can be described thus: EZH2/EZH1 mRNA in cultured human islets (real-time RT-PCR). The settings on record: juvenile human islets, PDGF-AA 50 ng/ml with Sunitinib 2 μM or U0126 10 μM, 2 days. On the procedure: Total RNA from freshly isolated or cultured islets after indicated treatments were purified using the Absolutely RNA miniprep purification kit (Stratagene) according to the manufacturer's instructions. RNA concentration was measured with a RiboGreen RNA quantification assay (Invitrogen). One-step quantitative RT-PCR was performed and analysed using an ABI Prism 7300 detection system (Applied Biosystems) with TaqMan one-step RTPCR Master Mix Reagents and appropriate amounts (10-100 ng) of islet total RNA as the template. We calculated the ratio of mRNA for the gene of interest to the amount of internal control mRNA of peptidylprolyl isomerase A (cyclophilin A, PPIA), and then normalized the ratio for each gene to its median. For islet studies, human islets were isolated either at Pittsburgh University Medical Center or the University of Alabama, Birmingham. Eight independent human islet preparations from juvenile donors at the age of 8 months, 1.0, 1.5, 2, 3, 4, 5 and 6 years, and three adult islet preparations from donors at the age of 39, 48 and 56 years were used in this study. After isolation, fresh islets were hand-picked and transferred to RPMI-1640 medium supplemented with 0.5% FBS, 0.2% BSA and 2% penicillin/streptomycin for an overnight recovery before experiments. […] To detect in vitro human islet β-cell proliferation stimulated by PDGF-AA, human islets were exposed to 50 μM BrdU for 24 h. Afterwards, human islets were processed in a similar way as in mouse islet studies for immunostaining of insulin, glucagon, PDX1 and BrdU. β-Cell proliferation rate was determined by quantifying percentage of insulin+ cells with BrdU+. More than 50 islets per group were counted for determining cultured human islet β-cell proliferation rate.

A further assay has as its system human islet β-cells. The experiment in a line: In vitro human islet β-cell proliferation (BrdU incorporation). The settings on record: juvenile human islets, PDGF-AA 50 ng/ml with Sunitinib 2 μM or U0126 10 μM. From the text:
For islet studies, human islets were isolated either at Pittsburgh University Medical Center or the University of Alabama, Birmingham. Eight independent human islet preparations from juvenile donors at the age of 8 months, 1.0, 1.5, 2, 3, 4, 5 and 6 years, and three adult islet preparations from donors at the age of 39, 48 and 56 years were used in this study. After isolation, fresh islets were hand-picked and transferred to RPMI-1640 medium supplemented with 0.5% FBS, 0.2% BSA and 2% penicillin/streptomycin for an overnight recovery before experiments. […] To detect in vitro human islet β-cell proliferation stimulated by PDGF-AA, human islets were exposed to 50 μM BrdU for 24 h. Afterwards, human islets were processed in a similar way as in mouse islet studies for immunostaining of insulin, glucagon, PDX1 and BrdU. β-Cell proliferation rate was determined by quantifying percentage of insulin+ cells with BrdU+. More than 50 islets per group were counted for determining cultured human islet β-cell proliferation rate.

On to `Nc1ncn([C@@H]2O[C@H](CO)[C@@H](O)[C@H]2O)c(=O)n1` [5-aza-C, 5-aza-cytidine], for which the “derepression of PDGFRA” value in the assay on PDGFRA [1] and with PDGFRA [2] was “dosage-dependent derepression; also recorded: dosage-dependent de-repression” in each case.
insulin: the “Ezh2 mRNA levels after mitogen exposure” value in the assay with Ezh2 [3] was “did not detectably alter”; in the assay with Ezh2 [3] (listed as Insulin), “did not induce”.
For `COC(=O)c1ccc2c(c1)NC(=O)/C2=C(\Nc1ccc(N(C)C(=O)CN2CCN(C)CC2)cc1)c1ccccc1` [Vargatef, reference compound], the “effect of inhibitor on PDGF-AA-induced Ezh2 expression” value with Ezh2 [3] is listed as “eliminated”. Further, the “effect of inhibitor on PDGF-AA-increased β-cell BrdU incorporation” value in the assay with mouse islet β-cells is on record as “eliminated”.
For `N#CC(=C(/N)Sc1ccccc1N)/C(C#N)=C(\N)Sc1ccccc1N` [U0126, reference compound], the “effect of inhibitor on PDGF-AA-induced Ezh2 expression” value in the assay with Ezh2 [3] is given as “blocked; also recorded: attenuates”. Besides, the “effect of inhibitor on PDGF-AA-increased β-cell BrdU incorporation” value in the assay with mouse islet β-cells was “blocked; also recorded: attenuates”; in the assay on human islet β-cells, “eliminated”. Besides, in the assay with EZH2 [4], the “effect of inhibitor on PDGF-AA-increased EZH2 mRNA” value is listed as “blocked”.
